Laboratory results from patent publication US20220089710A1, “Method of Treating Signs and Symptoms of Osteoarthritis” (Pfizer Inc., priority 2019, published 2022).
Like-named read-outs stand apart in the source and are kept apart here.

Experiments:
[1] = test system: patients with OA of the knee or hip; test: Example 2: randomized, double-blind, placebo-controlled study (24-week treatment; SC tanezumab at baseline, week 8, week 16), efficacy; assay type: in vivo, human; conditions: for WOMAC Pain subscale Change from Baseline: LS Mean / WOMAC Pain subscale Change from Baseline: LS Mean Difference vs. placebo: Week 2; for PGA-OA: LS Mean (SE) change from Baseline / PGA-OA: LS Mean Difference vs. placebo (SE) / WOMAC Pain: LS Mean Difference vs. placebo (SE) / WOMAC Physical Function: LS Mean (SE) change from Baseline / WOMAC Physical Function: LS Mean Difference vs. placebo (SE) / WOMAC Pain: LS Mean (SE) change from Baseline / % of subjects with ≥50% reduction in the WOMAC Pain subscale / Number of subjects with ≥50% reduction in the WOMAC Pain subscale / WOMAC Pain: LS mean difference±SE versus placebo: Week 24; for WOMAC Pain: LS Mean (SE) change from Baseline: ITT, multiple imputation; for % of subjects with ≥50% reduction in the WOMAC Pain subscale / Number of subjects with ≥50% reduction in the WOMAC Pain subscale: mixed BOCF and LOCF
Text: Key inclusion criteria were Western Ontario and McMaster Universities Osteoarthritis Index (WOMAC) Pain and Physical Function scores in the index joint; a Patient Global Assessment of OA (PGA-OA) score of fair, poor, or very poor; a history of insufficient pain relief or intolerance to acetaminophen, oral NSAID, and either tramadol or opioids (or unwilling to take opioids). […] Co-primary endpoints were change from baseline in WOMAC Pain, WOMAC Physical Function, and PGA-OA scores at week 24 compared with placebo. Three key secondary endpoints were: reduction in the WOMAC Pain subscale of 50%, at Week 24, WOMAC Pain subscale change from Baseline to Week 2, and weekly average pain score (based on daily diary) in the index joint change from Baseline to Week 1. Safety, including adjudication of joint safety events, was assessed.

[2] = test system: patients with osteoarthritis (OA) of the knee or hip; conditions: for PGA-OA: LS Mean (SE) change from Baseline / PGA-OA: LS Mean Difference vs. NSAID (SE) / WOMAC Pain ≥30% reduction: % of patients / WOMAC Pain ≥30% reduction: number of patients / WOMAC Pain ≥70% reduction: % of patients / WOMAC Pain ≥70% reduction: number of patients / WOMAC Pain ≥90% reduction: % of patients / WOMAC Pain ≥90% reduction: number of patients / WOMAC Pain: LS Mean Difference vs. NSAID (SE) / WOMAC Physical Function: LS Mean (SE) change from Baseline / WOMAC Physical Function: LS Mean Difference vs. NSAID (SE) / WOMAC Pain: LS Mean (SE) change from Baseline / WOMAC Pain ≥50% reduction: % of patients / WOMAC Pain ≥50% reduction: number of patients: Week 16; for PGA-OA: LS Mean Difference vs. NSAID / PGA-OA: LS Mean change from Baseline / WOMAC Pain: LS Mean Difference vs. NSAID / WOMAC Pain: LS Mean change from Baseline / WOMAC Physical Function: LS Mean Difference vs. NSAID / WOMAC Physical Function: LS Mean change from Baseline: Week 56;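 on all read-outs here: SC doses every 8 weeks plus twice-daily oral study drug to Week 56, efficacy assessed in all randomized patients given at least one SC dose, by assigned arm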
Experimental: Patients received a total of seven SC injections, each separated by 8 weeks and daily oral (PO) study medication BID through Week 56.
The Intent-to-Treat (ITT) Population included all patients who were randomized and received at least one dose of SC study drug. This analysis set was primary for all efficacy endpoints, which were analyzed according to randomization assignment. The Safety Population included all patients who received at least one dose of SC study treatment. This analysis set was primary for all safety endpoints, which were analyzed according to treatment received.

tanezumab: humanized immunoglobulin G Type 2 (IgG2) monoclonal antibody directed against human nerve growth factor (NGF); SEQ ID NOs: 9 or 11 and 10
WOMAC Pain subscale Change from Baseline: LS Mean ([1]; 2.5 mg SC): −2.02 | WOMAC Pain subscale Change from Baseline: LS Mean Difference vs. placebo ([1]; 2.5 mg SC): −0.67 | PGA-OA: LS Mean (SE) change from Baseline ([1]; 2.5 mg SC): −0.82 (0.06) | PGA-OA: LS Mean Difference vs. placebo (SE) ([1]; 2.5 mg SC): −0.11 (0.07) | WOMAC Pain: LS Mean Difference vs. placebo (SE) ([1]; 2.5 mg SC): −0.46 (0.18) | WOMAC Physical Function: LS Mean (SE) change from Baseline ([1]; 2.5 mg SC): −2.70 (0.17) | WOMAC Physical Function: LS Mean Difference vs. placebo (SE) ([1]; 2.5 mg SC): −0.59 (0.18) | WOMAC Pain: LS Mean (SE) change from Baseline ([1]; 2.5 mg SC): −2.70 (0.17) | % of subjects with ≥50% reduction in the WOMAC Pain subscale ([1]; 2.5 mg SC): (45.4%) | Number of subjects with ≥50% reduction in the WOMAC Pain subscale ([1]; 2.5 mg SC): 128 | WOMAC Pain: LS mean difference±SE versus placebo ([1]; 2.5 mg, index joint KL2/3): −0.19±0.23 | WOMAC Pain: LS mean difference±SE versus placebo ([1]; 2.5 mg, index joint KL4): −0.84±0.28 | WOMAC Pain subscale Change from Baseline: LS Mean ([1]; 5 mg SC): −1.69 | WOMAC Pain subscale Change from Baseline: LS Mean Difference vs. placebo ([1]; 5 mg SC): −0.34 | PGA-OA: LS Mean (SE) change from Baseline ([1]; 5 mg SC): −0.90 (0.06) | PGA-OA: LS Mean Difference vs. placebo (SE) ([1]; 5 mg SC): −0.19 (0.07) | WOMAC Pain: LS Mean Difference vs. placebo (SE) ([1]; 5 mg SC): −0.62 (0.18) | WOMAC Physical Function: LS Mean (SE) change from Baseline ([1]; 5 mg SC): −2.82 (0.17) | WOMAC Physical Function: LS Mean Difference vs. placebo (SE) ([1]; 5 mg SC): −0.71 (0.17) | WOMAC Pain: LS Mean (SE) change from Baseline ([1]; 5 mg SC): −2.85 (0.17) | % of subjects with ≥50% reduction in the WOMAC Pain subscale ([1]; 5 mg SC): (47.9%) | Number of subjects with ≥50% reduction in the WOMAC Pain subscale ([1]; 5 mg SC): 136 | WOMAC Pain: LS mean difference±SE versus placebo ([1]; 5 mg, index joint KL2/3): −0.32±0.23 | WOMAC Pain: LS mean difference±SE versus placebo ([1]; 5 mg, index joint KL4): −0.98±0.28 | PGA-OA: LS Mean (SE) change from Baseline ([2]; 2.5 mg SC): −0.96 (0.04) | PGA-OA: LS Mean Difference vs. NSAID (SE) ([2]; 2.5 mg SC): −0.02 (0.04) | WOMAC Pain ≥30% reduction: % of patients ([2]; 2.5 mg SC): 71.8% | WOMAC Pain ≥30% reduction: number of patients ([2]; 2.5 mg SC): 718 | WOMAC Pain ≥70% reduction: % of patients ([2]; 2.5 mg SC): 28.9% | WOMAC Pain ≥70% reduction: number of patients ([2]; 2.5 mg SC): 289 | WOMAC Pain ≥90% reduction: % of patients ([2]; 2.5 mg SC): 10.3% | WOMAC Pain ≥90% reduction: number of patients ([2]; 2.5 mg SC): 103 | WOMAC Pain: LS Mean Difference vs. NSAID (SE) ([2]; 2.5 mg SC): −0.15 (0.11) | WOMAC Physical Function: LS Mean (SE) change from Baseline ([2]; 2.5 mg SC): −3.27 (0.11) | WOMAC Physical Function: LS Mean Difference vs. NSAID (SE) ([2]; 2.5 mg SC): −0.19 (0.11) | WOMAC Pain: LS Mean (SE) change from Baseline ([2]; 2.5 mg SC, ITT, multiple imputation): −3.22 (0.11) | WOMAC Pain ≥50% reduction: % of patients ([2]; 2.5 mg SC, mixed BOCF/LOCF): 54.9% | WOMAC Pain ≥50% reduction: number of patients ([2]; 2.5 mg SC, mixed BOCF/LOCF): 549 | PGA-OA: LS Mean Difference vs. NSAID ([2]; 2.5 mg SC): 0.01 | PGA-OA: LS Mean change from Baseline ([2]; 2.5 mg SC): −0.65 | WOMAC Pain: LS Mean Difference vs. NSAID ([2]; 2.5 mg SC): −0.02 | WOMAC Pain: LS Mean change from Baseline ([2]; 2.5 mg SC): −2.44 | WOMAC Physical Function: LS Mean Difference vs. NSAID ([2]; 2.5 mg SC): −0.05 | WOMAC Physical Function: LS Mean change from Baseline ([2]; 2.5 mg SC): −2.45 | PGA-OA: LS Mean (SE) change from Baseline ([2]; 5 mg SC): −0.97 (0.04) | PGA-OA: LS Mean Difference vs. NSAID (SE) ([2]; 5 mg SC): −0.04 (0.04) | WOMAC Pain ≥30% reduction: % of patients ([2]; 5 mg SC): 72.9% | WOMAC Pain ≥30% reduction: number of patients ([2]; 5 mg SC): 725 | WOMAC Pain ≥50% reduction: % of patients ([2]; 5 mg SC): 56.5% | WOMAC Pain ≥50% reduction: number of patients ([2]; 5 mg SC): 562 | WOMAC Pain ≥70% reduction: % of patients ([2]; 5 mg SC): 35.0% | WOMAC Pain ≥70% reduction: number of patients ([2]; 5 mg SC): 348 | WOMAC Pain ≥90% reduction: % of patients ([2]; 5 mg SC): 12.7% | WOMAC Pain ≥90% reduction: number of patients ([2]; 5 mg SC): 126 | WOMAC Pain: LS Mean (SE) change from Baseline ([2]; 5 mg SC): −3.33 (0.11) | WOMAC Pain: LS Mean Difference vs. NSAID (SE) ([2]; 5 mg SC): −0.26 (0.11) | WOMAC Physical Function: LS Mean (SE) change from Baseline ([2]; 5 mg SC): −3.39 (0.11) | WOMAC Physical Function: LS Mean Difference vs. NSAID (SE) ([2]; 5 mg SC): −0.31 (0.10) | PGA-OA: LS Mean Difference vs. NSAID ([2]; 5 mg SC): 0.06 | PGA-OA: LS Mean change from Baseline ([2]; 5 mg SC): −0.60 | WOMAC Pain: LS Mean Difference vs. NSAID ([2]; 5 mg SC): 0.05 | WOMAC Pain: LS Mean change from Baseline ([2]; 5 mg SC): −2.37 | WOMAC Physical Function: LS Mean Difference vs. NSAID ([2]; 5 mg SC): 0.05 | WOMAC Physical Function: LS Mean change from Baseline ([2]; 5 mg SC): −2.36
